According to patent US11691969B2, “Pyridazinones as PARP7 inhibtors” (Ribon Therapeutics, Inc., priority 2019, dated 2023):

The compounds below were run on NCI-H1373 cells (assay: Tumor growth in human lung cancer model NCI-H1373 (subcutaneous xenograft)). Details: 100 mg/kg PO QD*28 days, NCI-H1373 tumors in CB-17 SCID mice, compared to vehicle (50% Labrasol).
Format: in vivo
Excerpt: Example B. PARP7 Inhibitors' Affect on Tumor Growth in Human Lung Cancer Models NCI-H1373
In this study, CB-17 SCID mice were inoculated subcutaneously at the right flank with NCI-H1373 cells for tumor development. Six days after tumor inoculation, 20 mice with tumor size ranging from 105-160 mm^3 (average tumor size 132 mm^3) were selected and assigned into 2 groups using stratified randomization with 10 mice in each group based upon their tumor volumes. The treatments were started from the next day post randomization (defined randomization day as day 0), and the mice were treated with vehicle (50% Labrasol), the compound of Example 57 (100 mg/kg PO. QD*28 days). The tumor sizes were measured three times per week during the treatment. The entire study was terminated on day 28.
Mean tumor volume and SEM were plotted (FIG. 1). Statistical significance, calculated using two-way ANOVA combined with Bonferroni post-test in which treatment group was compared to vehicle control, is indicated by an asterisk.

**Q.** Which “tumor growth (mean tumor volume)” value does the source give for C[C@@H](CO[C@@H]1CCN([C@@H]2CCN(c3ncc(C(F)(F)F)cn3)C[C@H]2O)C1=O)Nc1cn[nH]c(=O)c1C(F)(F)F [Example 57, 5-(((S)-1-(((R)-1-((3R,4R)-3-hydroxy-1-(5-(trifluoromethyl)pyrimidin-2-yl)piperidin-4-yl)-2-oxopyrrolidin-3-yl)oxy)propan-2-yl)amino)-4-(trifluoromethyl)pyridazin-3(2H)-one] here?
**A.** significantly reduce tumor growth

These compounds were tested against PARP7 (Homo sapiens (Human), UniProt Q7Z3E1) (assay: TR-FRET assay: displacement of biotinylated Probe A from the TIPARP active site (Enzymatic Assay for Inhibition of PARP7)). Details: TIPARP 6 nM, Probe A 2 nM, 25° C.
Format: binding
Summary of the method: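 6 nM His-tagged TIPARP and 2 nM biotinylated Probe A preincubated with compound 30 min at 25 °C in HEPES pH 8 buffer, then 4 nM ULight-anti-6×His and 0.25 nM Eu-streptavidin added for 30 min more. 665/615 nm ratio normalised to DMSO and 100 μM reference inhibitor controls; IC50 from 4-parameter fit.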

PARP7, sequence (Q7Z3E1 whole entry): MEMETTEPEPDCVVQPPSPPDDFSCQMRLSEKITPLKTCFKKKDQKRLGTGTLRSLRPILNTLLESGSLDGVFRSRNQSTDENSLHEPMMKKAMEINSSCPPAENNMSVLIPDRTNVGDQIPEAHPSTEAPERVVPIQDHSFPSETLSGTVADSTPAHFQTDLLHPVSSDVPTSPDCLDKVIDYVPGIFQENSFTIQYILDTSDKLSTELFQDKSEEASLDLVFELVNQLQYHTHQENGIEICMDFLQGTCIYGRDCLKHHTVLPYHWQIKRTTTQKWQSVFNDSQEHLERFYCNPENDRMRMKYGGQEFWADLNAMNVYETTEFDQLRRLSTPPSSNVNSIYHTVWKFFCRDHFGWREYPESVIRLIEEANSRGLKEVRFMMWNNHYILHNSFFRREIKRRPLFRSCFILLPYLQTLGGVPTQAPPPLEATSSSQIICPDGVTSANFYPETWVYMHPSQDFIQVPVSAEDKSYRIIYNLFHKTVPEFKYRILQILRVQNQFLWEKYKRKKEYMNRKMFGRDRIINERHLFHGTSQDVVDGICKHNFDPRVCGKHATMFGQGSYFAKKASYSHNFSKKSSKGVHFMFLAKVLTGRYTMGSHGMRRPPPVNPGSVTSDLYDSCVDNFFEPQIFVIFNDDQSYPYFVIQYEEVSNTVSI

**Q.** How did the IC50 turn out when C[C@@H](CO[C@@H]1CCN([C@@H]2CCN(c3ncc(C(F)(F)F)cn3)C[C@H]2O)C1=O)Nc1cn[nH]c(=O)c1C(F)(F)F [Example 57, 5-(((S)-1-(((R)-1-((3R,4R)-3-hydroxy-1-(5-(trifluoromethyl)pyrimidin-2-yl)piperidin-4-yl)-2-oxopyrrolidin-3-yl)oxy)propan-2-yl)amino)-4-(trifluoromethyl)pyridazin-3(2H)-one] was run?
**A.** < 100 nM

**Q.** Which IC50 does the source give for C[C@@H](CO[C@H]1CCN(C2CCN(c3ncc(C(F)(F)F)cn3)CC2)C1=O)Oc1cn[nH]c(=O)c1C(F)(F)F [Example 20A, 5-(((S)-1-(((S)-2-oxo-1-(1-(5-(trifluoromethyl)pyrimidin-2-yl)piperidin-4-yl)pyrrolidin-3-yl)oxy)propan-2-yl)oxy)-4-(trifluoromethyl)pyridazin-3(2H)-one] here?
**A.** < 100 nM

**Q.** For C[C@@H](CO[C@@H]1CCN(C2CCN(c3ncc(Cl)cn3)CC2)C1=O)Nc1cn[nH]c(=O)c1C(F)(F)F [Example 16, 5-(((S)-1-(((R)-1-(1-(5-chloropyrimidin-2-yl)piperidin-4-yl)-2-oxopyrrolidin-3-yl)oxy)propan-2-yl)amino)-4-(trifluoromethyl)pyridazin-3(2H)-one], which IC50 is on record?
**A.** < 100 nM

**Q.** With COC[C@@H](CO[C@H]1CCN(C2CCN(c3ccc(C#N)cn3)CC2)C1=O)Oc1cn[nH]c(=O)c1Br [Example 55A, 6-(4-((S)-3-((S)-2-((5-bromo-6-oxo-1,6-dihydropyridazin-4-yl)oxy)-3-methoxypropoxy)-2-oxopyrrolidin-1-yl)piperidin-1-yl)nicotinonitrile] as the compound, how does the IC50 read?
**A.** ≥ 1000 nM

**Q.** C[C@@H](COCC(=O)N(C)C1CCN(c2ccc(C#N)cn2)CC1)Nc1cn[nH]c(=O)c1C(F)(F)F [Example 6, (S)—N-(1-(5-cyanopyridin-2-yl)piperidin-4-yl)-N-methyl-2-(2-((6-oxo-5-(trifluoromethyl)-1,6-dihydropyridazin-4-yl)amino)propoxy)acetamide] was tested. Which IC50 did it give?
**A.** < 100 nM

**Q.** For COC[C@@H](CO[C@@H]1CCN(C2CCN(c3ccc(C#N)cn3)CC2)C1=O)Oc1cn[nH]c(=O)c1C(F)(F)F [Example 50B, 6-(4-((R)-3-((S)-3-methoxy-2-((6-oxo-5-(trifluoromethyl)-1,6-dihydropyridazin-4-yl)oxy)propoxy)-2-oxopyrrolidin-1-yl)piperidin-1-yl)nicotinonitrile], which IC50 is on record?
**A.** < 100 nM

**Q.** Which IC50 does the source give for C[C@@H](CO[C@H]1CCN(C2CCN(c3ccc(C#N)cn3)CC2)C1=O)Nc1cn[nH]c(=O)c1C(F)(F)F [Example 14A, 6-(4-((S)-2-oxo-3-((S)-2-((6-oxo-5-(trifluoromethyl)-1,6-dihydropyridazin-4-yl)amino)propoxy)pyrrolidin-1-yl)piperidin-1-yl)nicotinonitrile] here?
**A.** ≥ 1000 nM

**Q.** With C[C@@H](CO[C@@H]1CCN([C@@H]2CCN(c3ncc(C(F)(F)F)cn3)C[C@H]2F)C1=O)Nc1cn[nH]c(=O)c1C(F)(F)F (single isomer, unassigned) [Example 38A] as the compound, how does the IC50 read?
**A.** < 100 nM

**Q.** For C[C@@H](COCC(=O)N[C@@H]1CCN(c2ncc(C(F)(F)F)cn2)C[C@H]1O)Nc1cn[nH]c(=O)c1C(F)(F)F (single isomer, unassigned) [Example 33A], which IC50 is on record?
**A.** < 100 nM

**Q.** How did the IC50 turn out when Cc1cnc(N2CCC(N3CC[C@H](OC[C@H](C)Oc4cn[nH]c(=O)c4C(F)(F)F)C3=O)CC2)nc1 [Example 49A, 5-(((S)-1-(((S)-1-(1-(5-methylpyrimidin-2-yl)piperidin-4-yl)-2-oxopyrrolidin-3-yl)oxy)propan-2-yl)oxy)-4-(trifluoromethyl)pyridazin-3(2H)-one] was run?
**A.** 100 to 1000 nM

**Q.** How did the IC50 turn out when C[C@@H](CO[C@@H]1CCN(C2CCN(c3ncc(C(F)(F)F)cn3)CC2)C1=O)Nc1cn[nH]c(=O)c1Br [Example 32, 4-bromo-5-(((S)-1-(((R)-2-oxo-1-(1-(5-(trifluoromethyl)pyrimidin-2-yl)piperidin-4-yl)pyrrolidin-3-yl)oxy)propan-2-yl)amino)pyridazin-3(2H)-one] was run?
**A.** < 100 nM

**Q.** How did the IC50 turn out when O=C1[C@H](OC[C@H](CNCC(F)(F)F)Nc2cn[nH]c(=O)c2C(F)(F)F)CCN1C1CCN(c2ncc(C(F)(F)F)cn2)CC1 [Example 62, 5-(((S)-1-(((R)-2-oxo-1-(1-(5-(trifluoromethyl)pyrimidin-2-yl)piperidin-4-yl)pyrrolidin-3-yl)oxy)-3-((2,2,2-trifluoroethyl)amino)propan-2-yl)amino)-4-(trifluoromethyl)pyridazin-3(2H)-one] was run?
**A.** < 100 nM

**Q.** N#Cc1ccc(N2CCC(N3CC[C@@H](OCCNc4cn[nH]c(=O)c4C(F)(F)F)C3=O)CC2)nc1 [Example 36A] was tested. Which IC50 did it give?
**A.** < 100 nM

**Q.** For C[C@@H](CO[C@@H]1CCN([C@@H]2CCN(c3ncc(C(F)(F)F)cn3)C[C@@H]2O)C1=O)Nc1cn[nH]c(=O)c1C(F)(F)F [Example 59, 5-(((S)-1-(((R)-1-((3S,4R)-3-hydroxy-1-(5-(trifluoromethyl)pyrimidin-2-yl)piperidin-4-yl)-2-oxopyrrolidin-3-yl)oxy)propan-2-yl)amino)-4-(trifluoromethyl)pyridazin-3(2H)-one], which IC50 is on record?
**A.** < 100 nM

**Q.** For COC[C@@H](CO[C@@H]1CCN(C2CCN(c3ncc(C)cn3)CC2)C1=O)Nc1cn[nH]c(=O)c1C(F)(F)F [Example 53, 5-(((S)-1-methoxy-3-(((R)-1-(1-(5-methylpyrimidin-2-yl)piperidin-4-yl)-2-oxopyrrolidin-3-yl)oxy)propan-2-yl)amino)-4-(trifluoromethyl)pyridazin-3(2H)-one], which IC50 is on record?
**A.** < 100 nM

**Q.** Which IC50 does the source give for C[C@@H](CO[C@H]1CCN(C2CCN(c3ncc(C(F)(F)F)cn3)CC2O)C1=O)Oc1cn[nH]c(=O)c1C(F)(F)F (stereo partly drawn) [Example 64A, Syn-5-(((2S)-1-(((3S)-1-(3-hydroxy-1-(5-(trifluoromethyl)pyrimidin-2-yl)piperidin-4-yl)-2-oxopyrrolidin-3-yl)oxy)propan-2-yl)oxy)-4-(trifluoromethyl)pyridazin-3(2H)-one] here?
**A.** < 100 nM

**Q.** How did the IC50 turn out when C[C@@H](CO[C@@H]1CCN(C2CCN(c3ncc(C(F)(F)F)cn3)CC2)C1=O)Oc1cn[nH]c(=O)c1C(F)(F)F [Example 20B, 5-(((S)-1-(((R)-2-oxo-1-(1-(5-(trifluoromethyl)pyrimidin-2-yl)piperidin-4-yl)pyrrolidin-3-yl)oxy)propan-2-yl)oxy)-4-(trifluoromethyl)pyridazin-3(2H)-one] was run?
**A.** < 100 nM

**Q.** Which IC50 does the source give for C[C@@H](CO[C@@H]1CCN(C2CCN(c3cnc(C(F)F)cn3)CC2)C1=O)Nc1cn[nH]c(=O)c1C(F)(F)F [Example 22B, 5-(((S)-1-(((R)-1-(1-(5-(difluoromethyl)pyrazin-2-yl)piperidin-4-yl)-2-oxopyrrolidin-3-yl)oxy)propan-2-yl)amino)-4-(trifluoromethyl)pyridazin-3(2H)-one] here?
**A.** < 100 nM

**Q.** How did the IC50 turn out when C[C@@H](CN(C)C1CCN(C2CCN(c3ncc(C(F)(F)F)cn3)CC2)C1=O)Nc1cn[nH]c(=O)c1C(F)(F)F (stereo partly drawn) [Example 29, 5-(((S)-1-(methyl(2-oxo-1-(1-(5-(trifluoromethyl)pyrimidin-2-yl)piperidin-4-yl)pyrrolidin-3-yl)amino)propan-2-yl)amino)-4-(trifluoromethyl)pyridazin-3(2H)-one] was run?
**A.** < 100 nM

**Q.** How did the IC50 turn out when CC(=O)NC[C@@H](CO[C@@H]1CCN(C2CCN(c3ncc(C(F)(F)F)cn3)CC2)C1=O)Nc1cn[nH]c(=O)c1C(F)(F)F [Example 66, N—((S)-3-(((R)-2-oxo-1-(1-(5-(trifluoromethyl)pyrimidin-2-yl)piperidin-4-yl)pyrrolidin-3-yl)oxy)-2-((6-oxo-5-(trifluoromethyl)-1,6-dihydropyridazin-4-yl)amino)propyl)acetamide] was run?
**A.** < 100 nM

**Q.** How did the IC50 turn out when C[C@@H](CO[C@@H]1CCN([C@H]2CCN(c3ncc(C(F)(F)F)cn3)C[C@H]2F)C1=O)Nc1cn[nH]c(=O)c1C(F)(F)F (single isomer, unassigned) [Example 39B] was run?
**A.** < 100 nM

**Q.** Which IC50 does the source give for O=C1[C@H](OC[C@H](CO)Nc2cn[nH]c(=O)c2C(F)(F)F)CCN1C1CCN(c2ncc(C(F)(F)F)cn2)CC1 [Example 63, 5-(((S)-1-hydroxy-3-(((R)-2-oxo-1-(1-(5-(trifluoromethyl)pyrimidin-2-yl)piperidin-4-yl)pyrrolidin-3-yl)oxy)propan-2-yl)amino)-4-(trifluoromethyl)pyridazin-3(2H)-one] here?
**A.** < 100 nM

**Q.** For COC[C@@H](CO[C@@H]1CCN(C2CCN(c3ncc(C)cn3)CC2)C1=O)Oc1cn[nH]c(=O)c1C(F)(F)F [Example 52B, 5-(((S)-1-methoxy-3-(((R)-1-(1-(5-methylpyrimidin-2-yl)piperidin-4-yl)-2-oxopyrrolidin-3-yl)oxy)propan-2-yl)oxy)-4-(trifluoromethyl)pyridazin-3(2H)-one], which IC50 is on record?
**A.** < 100 nM

**Q.** Which IC50 does the source give for COC[C@@H](CO[C@@H]1CCN(C2CCN(c3ncc(C(F)(F)F)cn3)CC2)C1=O)Oc1cn[nH]c(=O)c1C(F)(F)F [Example 51B, 5-(((S)-1-methoxy-3-(((R)-2-oxo-1-(1-(5-(trifluoromethyl)pyrimidin-2-yl)piperidin-4-yl)pyrrolidin-3-yl)oxy)propan-2-yl)oxy)-4-(trifluoromethyl)pyridazin-3(2H)-one] here?
**A.** < 100 nM
